Measurements from patent US8692014B2, “Acid addition salts of 5-aminolevulinic acid or its derivatives” (Photocure ASA, priority 2004, dated 2014).
Blank lines part the entries; values can stand above or below the compound they belong to.

What was measured:
[1] = tested on: mouse skin; assay: Skin fluorescence after topical application of cream formulations to nude mice, measured at 636 nm; format: in vivo, Female Balb/c athymic nude mice; conditions: topical cream 0.5 mmol/10 g, fluorescence at 636 nm, in words; for induction of skin fluorescence compared with the hydrochloride salt: FIG. 6 and FIG. 7; for occurrence of maximum fluorescence compared with the hydrochloride salt: FIG. 7
Source text: (§1) Method: Female Balb/c athymic nude mice, weighing about 22 g, obtained from the Department of Laboratory Animals, The Norwegian Radium Hospital, Oslo, Norway, were used in the study. Each group consisted of three mice.
(§2) Each mouse received 0.05-0.1 g of formulation (see Example 31) topically applied at the right flank of the body, evenly distributed and covered with a dressing (Opsite Flexigrid; Smith and Nephew Medical Ltd., Hull, England).
(§3) The fiber point measuring device used consisted of a bundle of optical fibers connected to a spectrofluorimeter which produced the excitation light of 407 nm. The excitation light, which is capable of penetrating 0.1-0.5 mm into the tissue, was led through half of the fibers to the mouse skin. The resulting emission fluorescence spectrum (550-750) nm was collected and led through the remaining fibers into a photomultiplier for quantification. The fluorescence spectrum from the skin was measured at 0, 2, 4, 6, 8, 10, 12 and 24 hours after administration and plotted against time.
Different salts of 5-amino-4-oxopentanoic acid or of its benzylester were formulated in Unguentum Merck for dermal studies. All cream formulations contained 0.5 mmol substance per 10 g cream to assure the same molar concentration. Corrections were made in the case of the 2:1 salts so that the molar concentration of 5-amino-4-oxopentanoic acid or the corresponding ester corresponded to 0.5 mmol/10 g cream. Assuming that 10 g cream equals 10 ml, the approx. molar concentration is 0.5 mmol/10 ml=50 mM. Preparation of the formulations is outlined in Table 2 below.
Preparation of the Formulations is Described in Example 36. The same experimental system as in Example 32 was used, except that the skin fluorescence was measured at 636 nm rather than at 550-750 nm.
Preparation of the Formulations is Described in Example 36. The same experimental system as in Example 37 was used.

[2] = tested on: mouse skin; assay: Skin fluorescence after topical application of cream formulations to nude mice (emission 550-750 nm); format: in vivo, Female Balb/c athymic nude mice; conditions: in words; for skin fluorescence compared to the hydrochloride salt / initial fluorescence build-up compared with the hydrochloride salt / occurrence of maximum fluorescence compared with the hydrochloride salt: topical cream 0.5 mmol/10 g; for skin fluorescence compared to the hydrochloride salt: FIG. 3 and FIG. 4; for initial fluorescence build-up compared with the hydrochloride salt / occurrence of maximum fluorescence compared with the hydrochloride salt: FIG. 2
Protocol: Different salts of 5-amino-4-oxopentanoic acid or of its esters were formulated in Unguentum Merck for dermal studies. All cream formulations contained 0.5 mmol of substance per 10 g cream to ensure the same molar concentration (assuming that 10 g cream equals 10 ml, the approx. molar concentration is 0.5 mmol/10 ml or 50 mM). Preparation of the formulations is outlined in Table 1 below.
as §1, §2, §3

[3] = Hygroscopicity: water uptake and onset of deliquescence in closed chamber at 75-84% relative humidity; format: physicochemical; conditions: 75-84% relative humidity over saturated ammonium sulfate solution, ca. 25° C.; for appearance / deliquescence during the test period / water uptake as monitored by weight: in words
Protocol: (§4) Samples of methyl 5-amino-4-oxopentanoate hydrochloride, methanesulfonate, and toluenesulfonate were weighed and kept in 30 ml plastic cups in a closed chamber at 75-84% relative humidity over saturated ammonium sulfate solution at ambient temperature (ca. 25° C.). The samples were then weighed after different intervals of time to monitor water uptake. The appearance of the samples was also checked at the same time to determine the onset of deliquescence.
as §4, with “5-amino-4-oxopentanoic acid hydrochloride” for “methyl 5-amino-4-oxopentanoate hydrochloride, methanesulfonate,”, “75-84” for “75-84%”
as §4, with “hexyl” for “methyl”, “hydrochloride” for “hydrochloride, methanesulfonate,”

[4] = Hygroscopicity: 2 mg samples kept at ambient temperature at ambient or 100 humidity; format: physicochemical; conditions: for deliquescence on storage: ambient temperature and 100 humidity; for change of sample on storage: ambient temperature and ambient humidity for 4 days
Protocol: Samples (2 mg) of the hydrochloride, methanesulfonate, and toluenesulfonate of hexyl 5-amino-4-oxopentanoate were kept at ambient temperature and ambient humidity for 4 days.
Samples (2 mg) of the hydrochloride, methanesulfonate, and toluenesulfonate of hexyl 5-amino-4-oxopentanoate were kept at ambient temperature and 100 humidity.

Compound: Benzyl 5-amino-4-oxopentanoate sulfate (2:1)
induction of skin fluorescence compared with the hydrochloride salt [1]: poorer inducers of skin fluorescence than the corresponding hydrochloride salt
occurrence of maximum fluorescence compared with the hydrochloride salt [1]: occurred earlier

Compound: hexyl 5-amino-4-oxopentanoate toluenesulfonate
skin fluorescence compared to the hydrochloride salt ([2]; emission 550-750 nm): approx. the same skin fluorescence as the hydrochloride salt
appearance / deliquescence during the test period [3]: did not change appearance during the test period
water uptake as monitored by weight [3]: did not pick up water
deliquescence on storage [4]: deliquesced after four days
change of sample on storage [4]: No observable change

Compound: CS(=O)(=O)O.NCC(=O)CCC(=O)O [5-amino-4-oxopentanoic acid methanesulfonate]
maximal skin fluorescence compared with the HCl salt ([2]; topical cream 0.5 mmol/10 g (Unguentum Merck), excitation 407 nm, emission 550-750 nm, 0-24 h, FIG. 1): somewhat higher maximal skin fluorescence than the HCl salt

Compound: NCC(=O)CCC(=O)OCc1ccccc1.O=P(O)(O)O [benzyl 5-amino-4-oxopentanoate phosphate, Benzyl 5-amino-4-oxopentanoate phosphate]
induction of skin fluorescence compared with the hydrochloride salt [1]: poorer inducers of skin fluorescence than the corresponding hydrochloride salt
occurrence of maximum fluorescence compared with the hydrochloride salt [1]: occurred earlier

onset of deliquescence [3]: 22 h
water uptake as monitored by weight [3]: took up water to a considerable extent
Compound: COC(=O)CCC(=O)CN.Cl [methyl 5-amino-4-oxopentanoate hydrochloride, reference compound]

appearance / deliquescence during the test period [3]: deliquescence did not occur
water uptake as monitored by weight [3]: took up water to some extent
deliquescence on storage [4]: deliquesced after two days
change of sample on storage [4]: No observable change
Compound: CCCCCCOC(=O)CCC(=O)CN.CS(=O)(=O)O [hexyl 5-amino-4-oxopentanoate methanesulfonate]
skin fluorescence compared to the hydrochloride salt ([2]; emission 550-750 nm): approx. the same skin fluorescence as the hydrochloride salt

onset of deliquescence [3]: 22 h
water uptake as monitored by weight [3]: took up water to a considerable extent
Compound: COC(=O)CCC(=O)CN.CS(=O)(=O)O [Methyl 5-amino-4-oxopentanoate methanesulfonate]
skin fluorescence compared to the hydrochloride salt ([2]; emission 550-750 nm): a considerable increase in skin fluorescence as compared to the hydrochloride salt

Compound: Methyl 5-amino-4-oxopentanoate toluenesulfonate
appearance / deliquescence during the test period [3]: did not change appearance during the test period
water uptake as monitored by weight [3]: did not pick up water

Compound: NCC(=O)CCC(=O)OCc1ccccc1.O=[N+]([O-])O [benzyl 5-amino-4-oxopentanoate nitrate, Benzyl 5-amino-4-oxopentanoate nitrate]
induction of skin fluorescence compared with the hydrochloride salt [1]: more effective in inducing skin fluorescence than the hydrochloride salt

onset of deliquescence [3]: 5.0 h
deliquescence on storage [4]: deliquesced after standing overnight
change of sample on storage [4]: No observable change
Compound: CCCCCCOC(=O)CCC(=O)CN.Cl [hexyl 5-amino-4-oxopentanoate hydrochloride, reference compound]
water uptake as monitored by weight [3]: did not pick up water to a considerable extent

Compound: Benzyl 5-amino-4-oxopentanoate toluenesulfonate
initial fluorescence build-up compared with the hydrochloride salt [2]: occurred faster
occurrence of maximum fluorescence compared with the hydrochloride salt [2]: occurred faster

Compound: 5-Amino-4-oxopentanoic acid toluenesulfonate
appearance / deliquescence during the test period [3]: did not change appearance during the test period
water uptake as monitored by weight [3]: did not pick up water

Compound: CS(=O)(=O)O.NCC(=O)CCC(=O)OCc1ccccc1 [Benzyl 5-amino-4-oxopentanoate methanesulfonate]
initial fluorescence build-up compared with the hydrochloride salt [2]: occurred faster
occurrence of maximum fluorescence compared with the hydrochloride salt [2]: occurred faster

Compound: Cl.NCC(=O)CCC(=O)O [5-amino-4-oxopentanoic acid hydrochloride, reference compound]
onset of deliquescence [3]: 22.5 h
water uptake as monitored by weight [3]: took up water to a considerable extent
